SMILES strings stand for the structures. The source made the active and inactive calls. No cut-off for these calls is given here.

The record followed here is ChEMBL document CHEMBL5576044, “Inhibition of kynurenine production by N,O-substituted hydroxylamine derivatives” (Bioorg Med Chem Lett, 2024).

Data set [1] deals with Mus musculus. Nature of the data set: In vivo inhibition of kynurenine production in C57BL/6 mouse serum at 100 mg per mouse administered via oral dosing and measured after 2 hrs by LC-MS analysis. Type of data set: functional, organism-based.
Data set [2] is described as follows: Inhibition of kynurenine production in human SK-OV-3 cells. Type of data set: functional, cell-based.
The target in data set [3] is Indoleamine 2,3-dioxygenase 1 (Homo sapiens) (UniProt P14902). Description: Inhibition of recombinant human IDO1 at 10 ug/ml relative to control. To be noted: dose 10.0 µg/ml.
Indoleamine 2,3-dioxygenase 1 (Homo sapiens), sequence (P14902 whole entry, looked up): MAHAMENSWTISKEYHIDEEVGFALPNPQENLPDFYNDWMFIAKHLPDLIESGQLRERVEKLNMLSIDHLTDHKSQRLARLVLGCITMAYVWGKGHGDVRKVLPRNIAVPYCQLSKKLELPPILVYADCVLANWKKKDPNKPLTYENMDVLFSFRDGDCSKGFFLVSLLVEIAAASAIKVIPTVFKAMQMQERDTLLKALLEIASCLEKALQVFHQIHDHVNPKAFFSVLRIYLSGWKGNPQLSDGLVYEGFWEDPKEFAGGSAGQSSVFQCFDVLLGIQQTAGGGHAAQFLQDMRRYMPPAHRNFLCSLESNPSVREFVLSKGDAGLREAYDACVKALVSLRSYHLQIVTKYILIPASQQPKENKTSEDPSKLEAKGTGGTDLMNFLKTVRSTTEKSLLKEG
Data set [4] is described as follows: Cytotoxicity against human SK-OV-3 cells. The class given is toxicity, cell-based.
Data set [5] is described as follows: Drug metabolism in human SK-OV-3 cell culture supernatant assessed as O-4-nitrobenzyl hydroxylamine Hydrochloride formation after 24 hrs. Type of data set: ADME, cell-based. To be noted: sk-ov-3, 24 h.
Data set [6] has as its target Indoleamine 2,3-dioxygenase 1 (Homo sapiens) (UniProt P14902). Nature of the data set: Inhibition of IDO1 in human SK-OV-3 cells. The class given is cell-based.
A short description of data set [7]: Drug degradation in human SK-OV-3 cell culture supernatant. The class given is ADME, cell-based.
A further data set has as its system A549. Description: Reduction in IFN-gamma activated IDO1 expression level in human A549 cells at 1.25 to 40 microg/ml by Western blotting analysis. The class given is functional, cell-based. To be noted: dose 1.25-40 µg/ml.
For data set [8], the target named is Signal transducer and activator of transcription 3 (Homo sapiens) (UniProt P40763). Nature of the data set: Inhibition of STAT3 phosphorylation in IFN-gamma activated human A549 cells at 5 to 40 microg/ml by Western blotting analysis. As to conditions: dose 5-40 µg/ml. The class given is cell-based. In general terms: A western blot detects proteins with antibodies after separation by electrophoresis.
Signal transducer and activator of transcription 3 (Homo sapiens), sequence (P40763 whole entry): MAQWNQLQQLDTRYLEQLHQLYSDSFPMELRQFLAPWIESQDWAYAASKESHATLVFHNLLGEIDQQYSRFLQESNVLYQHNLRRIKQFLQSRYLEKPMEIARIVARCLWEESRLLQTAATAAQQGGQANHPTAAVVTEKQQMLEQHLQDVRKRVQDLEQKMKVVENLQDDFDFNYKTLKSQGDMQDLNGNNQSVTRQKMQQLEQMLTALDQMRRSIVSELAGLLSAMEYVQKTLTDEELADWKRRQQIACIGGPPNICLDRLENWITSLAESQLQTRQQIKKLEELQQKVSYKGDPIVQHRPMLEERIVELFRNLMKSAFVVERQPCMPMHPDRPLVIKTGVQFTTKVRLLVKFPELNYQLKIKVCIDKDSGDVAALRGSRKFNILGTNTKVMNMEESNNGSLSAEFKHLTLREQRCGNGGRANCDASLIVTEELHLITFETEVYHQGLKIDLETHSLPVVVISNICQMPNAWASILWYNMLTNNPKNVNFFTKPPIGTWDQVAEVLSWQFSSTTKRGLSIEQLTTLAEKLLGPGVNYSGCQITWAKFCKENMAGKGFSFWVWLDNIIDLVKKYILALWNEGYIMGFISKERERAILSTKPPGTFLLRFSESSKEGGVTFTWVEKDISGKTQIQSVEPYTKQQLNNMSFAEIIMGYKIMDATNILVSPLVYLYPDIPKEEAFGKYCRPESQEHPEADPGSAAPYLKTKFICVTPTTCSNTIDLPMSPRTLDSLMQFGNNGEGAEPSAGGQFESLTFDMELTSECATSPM

Data set [9] is described as follows: Drug metabolism in human SK-OV-3 cell culture supernatant assessed as O-benzylhydroxylamine Hydrochloride formation after 24 hrs. Type of data set: ADME, cell-based. To be noted: sk-ov-3, 24 h.
A short description of data set [10]: Drug concentration in C57BL/6 mouse serum at 100 mg per mouse administered via oral dosing after 2 hrs by LC-MS analysis. Type of data set: ADME. As to conditions: read-out: Drug uptake.
Data set [11] in a line: Drug metabolism in mouse serum assessed as N-Cbz-L-alanine formation after 1 hr. Type of data set: ADME, cell-free.
The test system of data set [12] is Mus musculus. Description: In vivo inhibition of kynurenine production in iv dosed mouse serum by LC/MS analysis. Type of data set: functional, organism-based.
Data set [13] can be described thus: Stability in mouse serum after 1 hr. The class given is ADME.
The test system of data set [14] is Mus musculus. Nature of the data set: In vivo inhibition of kynurenine production in C57BL/6 mouse serum at 200 mg per mouse administered via oral dosing and measured after 2 hrs by LC-MS analysis. The class given is functional, organism-based.
Data set [15] is described as follows: Drug metabolism in C57BL/6 mouse serum at 200 mg per mouse administered via oral dosing measured after 2 hrs by LC-MS analysis. The class given is ADME.
Data set [16] is described as follows: Drug concentration in C57BL/6 mouse serum at 200 mg per mouse administered via oral dosing after 2 hrs by LC-MS analysis. The class given is ADME. As to conditions: read-out: Drug uptake.
A short description of data set [17]: Drug metabolism in C57BL/6 mouse serum at 200 mg per mouse administered via IP measured after 2 hrs by LC-MS analysis. Type of data set: ADME.
The nature of data set [18]: Drug concentration in C57BL/6 mouse serum at 200 mg per mouse administered via ip after 2 hrs by LC-MS analysis. The class given is ADME, organism-based. As to conditions: read-out: Drug uptake.
Data set [19] relates to Mus musculus. Description: In vivo inhibition of kynurenine production in C57BL/6 mouse serum at 200 mg per mouse administered via ip and measured after 2 hrs by LC-MS analysis. The class given is functional, organism-based.

As usually defined, the inhibition is the relative decrease from the control value, in per cent. On to `NS(=O)(=O)NCCNc1nonc1/C(=N/O)Nc1ccc(F)c(Br)c1`, for which, in the data set with Mus musculus [1], the inhibition entry was “Active”.

As a reminder, the IC50 is the concentration that gives 50% inhibition. In the case of `N[C@@H](CO)C(=O)NOCc1ccccc1`, the IC50 in data set [2] is 5.5 µM; in [4] it was greater than 100 µM. In data set [3], the inhibition is 0%.

In the case of `O=C(N[C@@H](CO)C(=O)NOCc1ccc([N+](=O)[O-])cc1)OCc1ccccc1`, the Drug metabolism entry in data set [5] was “Metabolite_Detected”. For the same compound, the IC50 was 5.5 µM in data set [2] and greater than 100 µM in data set [4]. The inhibition in [3] is -9.2%. Besides, the inhibition result in data set [6] was “Active”.

As for `O=C(N[C@@H](CO)C(=O)Nc1ccccc1O)OCc1ccccc1`, the IC50 in [2] and in [4] was greater than 100 µM each time. In addition, the inhibition in data set [3] came out at 2.9%.

Consider `Cl.NOCc1ccc([N+](=O)[O-])cc1`, for which, in data set [7], the Stability entry is on record as “Unstable”. Moreover, the values for the IC50 in data set [2] and in data set [4] were 8 µM and greater than 100 µM, respectively. The inhibition in [3] is 100%. The inhibition result in [6] was “Active”.

Take `O=[N+]([O-])c1ccc(CONS(=O)(=O)Cc2ccccc2)cc1`: the IC50 in data set [2] and in [4] was greater than 100 µM in each case. Besides, in data set [3], the inhibition amounted to 0.19%.

In the case of `NOCc1ccccc1`, the values for the IC50 in data set [2] and in data set [4] were 10 µM and greater than 100 µM, respectively. Besides, the inhibition in data set [3] turned out to be 100%. In addition, in data set [6], the inhibition entry was “Active”.

With `O=C(NOCc1ccc([N+](=O)[O-])cc1)C12CC3CC(CC(O)(C3)C1)C2`, the IC50 in data set [2] and in data set [4] was greater than 100 µM in each case. Further, in data set [3], the inhibition is -3.3%.

For `O=C(N[C@@H](CO)C(=O)NCCc1ccccc1)OCc1ccccc1`, the IC50 in data set [2] and in data set [4] was greater than 100 µM each time. Besides, the inhibition in data set [3] was -5.1%.

For the compound `O=C(N[C@@H](CO)C(=O)NOCc1ccccc1)OCc1ccccc1`, the result in the data set with A549 was inactive. Also, in [8], the inhibition result was “inactive”. Further, the results for the IC50 in data set [2] and in [4] were 4.6 µM and greater than 100 µM, respectively. In addition, in [3], the inhibition is 10%. For the same compound, the inhibition entry in data set [6] is “Active”.

In the case of `O=C(N[C@@H](CO)C(=O)O)OCc1ccccc1`, the IC50 in data set [2] and in data set [4] was greater than 100 µM each time. For the same compound, the inhibition in [3] is -5.5%.

With `CONC(=O)[C@H](CO)NC(=O)OCc1ccccc1`, the 50% inhibitory concentration (IC50) in data set [2] and in data set [4] was greater than 100 µM in each case. For the same compound, the inhibition in [3] was -8.3%.

Take `O=C(N[C@H](CO)C(=O)NOCc1ccccc1)OCc1ccccc1`: the concentration for half-maximal inhibition (IC50) in [2] is 5.1 µM; in [4], greater than 100 µM. Further, in data set [3], the inhibition came to 5.6%. For the same compound, the Drug metabolism entry in data set [9] was “Metabolite_Detected”.

For the compound `NS(=O)(=O)NCCNc1nonc1C(=NO)Nc1ccc(F)c(Br)c1` [EPACADOSTAT], the concentration at 2 h in data set [10] was determined as 1400 nM.

On to `CC12CC3CC(C)(C1)CC(C(=O)NOCc1ccccc1)(C3)C2`, for which the IC50 in data set [2] and in data set [4] was greater than 100 µM throughout. For the same compound, in data set [3], the inhibition stood at 7.9%.

For `O=C(NOCc1ccc([N+](=O)[O-])cc1)[C@H](O)c1ccccc1`, the IC50 in data set [2] is 24 µM; in data set [4], greater than 100 µM. Further, the inhibition in data set [3] is 9%. The inhibition result in [6] was “inactive”.

With `C[C@H](NC(=O)OCc1ccccc1)C(=O)NOCc1ccccc1`, the IC50 was 5.2 µM in data set [2] and greater than 100 µM in data set [4]. Besides, the Drug metabolism entry in [11] was “Metabolite_Detected”. Also, in data set [3], the inhibition is -9.4%. In the data set with Mus musculus [12], the inhibition result was “inactive”. Besides, in [13], the Stability entry is “Unstable”.

On to `O=C(N[C@@H](Cc1c[nH]c2ccccc12)C(=O)NOCc1ccccc1)OCc1ccccc1`, for which the concentration for half-maximal inhibition (IC50) was 12 µM in data set [2] and greater than 100 µM in data set [4]. Moreover, the inhibition in [3] came out at 4.9%.

Regarding `O=C(NOCc1ccc([N+](=O)[O-])cc1)C12CC3CC(CC(C3)C1)C2`, the Stability entry in data set [7] is given as “Stable”. For the same compound, the inhibition entry (with Mus musculus [14]; in the data set on Mus musculus [19]; in [6]) was “inactive” each time. The Drug metabolism entry in data set [15] and in data set [17] was “Metabolite_Detected” each time. Moreover, the IC50 was 17 µM in data set [2] and greater than 100 µM in data set [4]. The concentration at 2 h came out at 3 nM in [16] and 18 nM in data set [18]. The inhibition in data set [3] was 12%.
